{"source": "paper PMC7767506", "about": "“Synthesis and Characterization of Store-Operated Calcium Entry Inhibitors Active in the Submicromolar Range” (International Journal of Molecular Sciences, 2020)", "assay_type_in_all_cases": "cell-based, human", "key": {"[1]": {"tested_on": "Orai1-deficient lymphoblastoid cell line", "test": "SOCE in Orai1-deficient lymphoblastoid cell line (LCL Orai1-)", "conditions": "1 µM", "protocol": "We next tested P11 efficacy on two lymphoblastoid cell lines (“LCL”) established from an Orai1-deficient with a severe combined immunodeficiency (“LCL Orai1−”) and a healthy (“LCL Orai1+”) patients (Figure 3C [19]). […] However, CaCl2 addition after 10 min of TG treatment was only able to induce a massive [Ca^2+]cyt rise in LCL expressing Orai1 proteins, confirming the SOCE default of the SCID patient.\n[Ca^2+]cyt was recorded by a fluorimetric ratio technique as previously described. Leukocytes were spun and resuspended at a density of 10^6 cells/mL in Hepes buffered saline (HBS; 135 mM NaCl, 5.9 mM KCl, 1.2 mM MgCl2, 11.6 mM Hepes, 11.5 mM glucose adjusted to pH 7.3 with NaOH). Due to the presence of 0.002% Ca^2+ in the NaCl, this HBS medium contained 0.1 mM of Ca^2+. […] Ultraviolet light of 360 nm was used for excitation of Indo-1, and emissions at 405 and 480 nm were recorded. […] The maximum Indo-1 fluorescence (Rmax) was obtained by adding 1 µM ionomycin to the cell suspension in the presence of 10 mM extracellular CaCl2. Minimum fluorescence was determined following the depletion of external Ca^2+ with 5 mM EGTA.\nTo visualize the SOCE, cells were placed into the quartz cuvette and 0.5 EGTA was added just before the beginning of the recordings. […] In the dose-response experiments, different concentrations of 2-APB and its analogs were added 30 s prior to Ca^2+ readdition."}, "[2]": {"tested_on": "IL-2 synthesis by Jurkat T cells", "test": "IL-2 ELISA in supernatants of Jurkat cells", "protocol": "We next studied the effect of increasing [P11] on the neo-synthesized IL-2 concentration in the medium of PHA -stimulated Jurkat cells after 24 h.\nForty-eight-well plates were seeded with 10^6 Jurkat T cells per well. Cells were then incubated for 24 h with or without 10 µg/mL PHA and 0 to 1 µM P11 in complete culture medium. After 24 h, supernatants were collected, and IL-2 amounts were quantified using a Quantikine Human IL-2 Immunoassay (R&D Systems Europe, Lille, France). Optical density (OD) was measured at 450 nm using a Victor3 plate reader (Perkin Elmer, Courtaboeuf, France). The concentration of supernatant IL-2 was determined from the OD curve obtained with the standard. Results were the mean of four repeats. In parallel plates, cell viability was accessed after treatment with trypan blue and counting with a Malassez hematimeter (Sigma-Aldrich, Saint Quentin Fallavier, France)."}, "[3]": {"tested_on": "Mn2+ influx through SOCC in Jurkat cells", "test": "Mn2+ influx by Indo-1 quenching in Jurkat cells", "conditions": "1 µM", "excerpt": "As [Ca^2+]cyt results from a balance between Ca^2+ influx and efflux, this decay was due to the activity of the plasma membrane Ca^2+ ATPases (“PMCA”) and the Na^+/Ca^2+ exchanger (“NCX”) counteracting the SOCE (TG has blocked the SERCA activity, impairing Ca^2+ uptake in the ER). To ensure that compound P11 acted on the SOCE and not on the Ca^2+-efflux mechanisms, we next performed a Mn^2+-quenching experiment with Indo-1. Mn^2+ ions enter the cells through SOCC but cannot be pumped outside the cells by PMCA and NCX; once in the cells, Mn^2+ bound to Indo-1 and quenched its fluorescence measured at 430 nm. Thus, an increase of the Mn^2+ influx amplitude was associated with an increase of the Indo-1 quenching speed, and reversely.\nAfter a 10 min TG treatment to open the SOCC, 100 µM MnCl2 was added. Mn^2+ induced a quenching rate of −0.89 ± 0.05% Fo/s (n = 3, Figure 3A). […]\nTo study directly the divalent ion influx through the SOCC with selected 2-APB analogs, we performed Mn^2+ quenching experiments. Mn^2+ ions bind to Indo-1 and quench the 430 nm emission wavelength fluorescence after excitation at 360 nm. The decrease of fluorescence is directly dependent on Mn^2+ entry through SOCC. […] After 60 s a 2-APB analog was added as indicated and the change in the curve slope was measured."}, "[4]": {"tested_on": "Jurkat cells", "test": "TUNEL apoptosis assay in Jurkat cells", "protocol": "To verify the mechanism of cell death induced by compound P11, we next performed caspase-3 activity assays using the fluorogenic Ac-DEVD-AFC substrate as well as a TUNEL assay.\nWe measured the apoptosis levels in Jurkat cells by the “in situ cell death detection” kit (Roche Applied Science, Meylan, France). Briefly, 50,000 cells/well were seeded in a 96-well plate and treated with or without 10 µg/mL PHA and 0 to 1 µM P11 for 6, 12, or 24 h. Cells were spun, fixed, and permeabilized according to the manufacturer’s instructions and the terminal transferase dUTP Nick end labelling reaction was performed in the dark during 60 min at 37 °C. For visualization of the results, an epifluorescence microscope (Axioskop, Karl Zeiss, Le Pecq, France) was used at an excitation wavelength of 488 nm, and an emission wavelength of 545 nm. Cells were also loaded with 4’,6’ –diamidino-2-phenylindole (DAPI) to visualize the nuclei. Total cell number (>200) and TUNEL-positive cells were counted in several fields (>5) and the ratio of apoptotic cells was calculated. This experiment was repeated three times."}}, "data": [{"substance": "2-(dibiphenyl-4-ylboryloxy)ethanamine [P11]", "values": [{"measurement": "effect on [Ca2+]cyt after SOCE activation", "setting": "[1]", "value": "inefficient"}, {"measurement": "IL-2 synthesis by compound alone", "setting": "[2]; 1 µM, no PHA", "value": "not able to induce IL-2 synthesis"}, {"measurement": "IL-2 concentration in medium", "setting": "[2]; 10 µg/mL PHA + 1 µM P11, 24 h", "value": "26 ± 6", "unit": "pg/mL"}, {"measurement": "change of IL-2 synthesis", "setting": "[2]; 10 µg/mL PHA + 1 µM P11, 24 h, vs PHA alone", "value": "−74", "unit": "%"}, {"measurement": "IL-2 corrected for the number of living cells", "setting": "[2]; PHA + P11 (highest concentration), 24 h", "value": "39.2 ± 8.6", "unit": "pg/mL"}, {"measurement": "decrease of IL-2 synthesis capacity of living cells", "setting": "[2]; PHA + P11 vs PHA alone", "value": "≈ 63%"}, {"measurement": "blockade of Mn2+ quenching rate", "setting": "[3]", "value": "≈ 90%"}, {"measurement": "Indo-1 quenching rate by Mn2+", "setting": "[3]; added 30 s prior to 100 µM MnCl2", "value": "-0.09 ± 0.01", "unit": "% Fo/s"}, {"measurement": "apoptotic cells (TUNEL)", "setting": "[4]; 1 µM P11 alone, 24 h", "value": "~ 5%"}, {"measurement": "cells with fragmented DNA (TUNEL)", "setting": "[4]; 10 µg/mL PHA + 1 µM P11, 24 h", "value": "17.9 ± 1.2", "unit": "%"}, {"measurement": "fold increase of cells with fragmented DNA", "setting": "[4]; PHA + P11 at concentrations > 10 nM, vs resting conditions", "value": "≈ 4.5 fold"}, {"measurement": "fold increase of apoptotic cells", "setting": "[4]; costimulation PHA + P11 > 10 nM, vs PHA alone (Figure 7 legend)", "value": "≈ 1.5 fold"}]}]}
